Patent US12195551B2, “Combination of an ErbB-2/ErbB-3 bispecific antibody with endocrine therapy for breast cancer” (Merus N.V., priority 2017, dated 2025)
Values joined by “and” are separate entries in the source; they are usually repeats but may differ in a detail not shown here. Equal entries are not always repeated. Where two headings read alike, the source gives them in different places.

Columns and labels:
[1] = system: HBCx-34 PDX model; conditions: model characterisation; cited from earlier work
[2] = system: HBCx-34 tumors; test: In vivo growth characteristics of the HBCx-34 PDX model (FIG. 4); design: species or system mouse; conditions: animals that did not receive estrogens, vs vehicle
Experimental: FIG. 4. In vivo growth characteristics of the HBCx-34 PDX model. A, IHC characteristics of HBCx-34 PDX tumors. B, Athymic nude mice were engrafted s.c. with HBCx-34 tumors. […] T-tests were performed to compare tumor volumes from estrogen-independent tumors treated with vehicle or Letrozole (*, p<0.05, **, p<0.01, ***, p<0.001).

[3] = system: human HBCx-34 breast tumor xenograft; test: Antitumor efficacy in HBCx-34 patient-derived breast cancer xenograft (study XTS-1521); format: in vivo, mouse
Experimental: Antitumor efficacy of an HER2/HER3 targeting antibody was determined in the context of a combination treatment together with an aromatase inhibitor. […] It was used as single agent and in combination with the aromatase inhibitor Letrozole. The hormone-dependent HBCx-34 patient-derived breast cancer xenograft model established in immunodeficient mice was used as an example of a breast cancer.
The HBCx-34 PDX model was derived from a treatment-naïve primary breast infiltrating ductal carcinoma.
Tumor-bearing mice received estrogen diluted in drinking water (β-oestradiol, 8.5 mg/l), from the date of tumor implant to the date of inclusion. During the treatment period, mice were not supplemented with estrogen.
Tumors of the same passage were transplanted subcutaneously onto 6-24 mice (donor mice, passage (n−1)). When these tumors reached 1000 to 2000 mm^3, donor mice were sacrificed by cervical dislocation, tumors were aseptically excised and dissected. After removing necrotic areas, tumors were cut into fragments measuring approximately 20 mm^3 and transferred in culture medium before grafting.
95 mice were anaesthetized with 100 mg/kg ketamine hydrochloride (batch 5D92, Exp: 2017/03, Virbac) and 10 mg/kg xylazine (batch KP0AX9X, Exp: 2017/08, Bayer), and then skin was aseptized with a chlorhexidine solution, incised at the level of the interscapular region, and a 20 mm^3 tumor fragment was placed in the subcutaneous tissue. Skin was closed with clips. All mice from the same experiment were implanted on the same day.
Treatments were randomly attributed to boxes housing up to 5 mice and were initiated 36 days post implantation of the tumor (42% inclusion rate). The study was terminated following 57 days after the start of treatment.
Tumor volume was evaluated by measuring tumor diameters, with a calliper, biweekly during the experimental period.
The formula TV (mm3)=[length (mm)×width (mm)2]/2 was used, where the length and the width are the longest and the shortest diameters of the tumor, respectively.
A total of 4 groups were used as summarized in the scheme below. Each group initially included 10 mice.
All treatment doses were body weight adjusted at each injection.

[4] = MCLA-128 25 mg/kg i.p., Letrozole […] p.o. qdx57, day of maximum as in text
[5] = MCLA-128 25 mg/kg IP, Letrozole […] PO qdx57

SMILES: N#Cc1ccc(C(c2ccc(C#N)cc2)n2cncn2)cc1 [Letrozole]
- response of the HBCx-34 PDX model [1]: low responder
- formation of estrogen-independent tumors [2]: significantly reduced the formation of estrogen-independent tumors
- Dunn's Multiple Comparison Test on relative body weight (DAY 25, vs MCLA-128 25): * (* = P < 0.05)
- Dunn's Multiple Comparison Test on relative body weight (DAY 28, vs Vehicle MCLA-128): * (* = P < 0.05)
- Dunn's Multiple Comparison Test on relative body weight (DAY 32, vs MCLA-128 25): ** (** = P < 0.01)
- Dunn's Multiple Comparison Test on relative body weight (DAY 32, vs Vehicle MCLA-128): ** (** = P < 0.01)
- Dunn's Multiple Comparison Test on relative body weight (DAY 35, vs MCLA-128 25): * (* = P < 0.05)
- Dunn's Multiple Comparison Test on relative body weight (DAY 35, vs Vehicle MCLA-128): ** (** = P < 0.01)
- Dunn's Multiple Comparison Test on relative body weight (DAY 39, vs MCLA-128 25): ** (** = P < 0.01)
- Dunn's Multiple Comparison Test on relative body weight (DAY 39, vs Vehicle MCLA-128): ** (** = P < 0.01)
- Dunn's Multiple Comparison Test on relative body weight (DAY 42, vs Vehicle MCLA-128): ** (** = P < 0.01)
- Dunn's Multiple Comparison Test on relative body weight (DAY 46, vs MCLA-128 25): ** (** = P < 0.01)
- Dunn's Multiple Comparison Test on relative body weight (DAY 46, vs Vehicle MCLA-128): ** (** = P < 0.01)
- Dunn's Multiple Comparison Test on relative body weight (DAY 49, vs MCLA-128 25): ** (** = P < 0.01)
- Dunn's Multiple Comparison Test on relative body weight (DAY 49, vs Vehicle MCLA-128): ** (** = P < 0.01)
- Dunn's Multiple Comparison Test on relative body weight (DAY 53, vs MCLA-128 25): ** (** = P < 0.01)
- Dunn's Multiple Comparison Test on relative body weight (DAY 53, vs Vehicle MCLA-128): ** (** = P < 0.01)
- Dunn's Multiple Comparison Test on relative body weight (DAY 56, vs MCLA-128 25): ** (** = P < 0.01)
- Dunn's Multiple Comparison Test on relative body weight (DAY 56, vs Vehicle MCLA-128): ** (** = P < 0.01)
- maximum individual body weight loss [4]: 4.1%
- maximum mean body weight loss [4]: no mean body weight loss
- Mann-Whitney test on tumor volume ([3]; DAY 25, vs vehicle group): * (* = P < 0.05)
- Mann-Whitney test on tumor volume ([3]; DAY 28, vs vehicle group): * (* = P < 0.05)
- Dunn's Multiple Comparison Test on tumor volume ([3]; DAY 32, vs MCLA-128 25): * (* = P < 0.05)
- Mann-Whitney test on tumor volume ([3]; DAY 32, vs vehicle group): ** (** = P < 0.01)
- Dunn's Multiple Comparison Test on tumor volume ([3]; DAY 35, vs MCLA-128 25): ** (** = P < 0.01)
- Dunn's Multiple Comparison Test on tumor volume ([3]; DAY 35, vs Vehicle MCLA-128): * (* = P < 0.05)
- Mann-Whitney test on tumor volume ([3]; DAY 35, vs vehicle group): *** (*** = P < 0.001)
- Dunn's Multiple Comparison Test on tumor volume ([3]; DAY 39, vs MCLA-128 25): ** (** = P < 0.01)
- Dunn's Multiple Comparison Test on tumor volume ([3]; DAY 39, vs Vehicle MCLA-128): * (* = P < 0.05)
- Mann-Whitney test on tumor volume ([3]; DAY 39, vs vehicle group): *** (*** = P < 0.001)
- Dunn's Multiple Comparison Test on tumor volume ([3]; DAY 42, vs MCLA-128 25): ** (** = P < 0.01)
- Dunn's Multiple Comparison Test on tumor volume ([3]; DAY 42, vs Vehicle MCLA-128): * (* = P < 0.05)
- Mann-Whitney test on tumor volume ([3]; DAY 42, vs vehicle group): *** (*** = P < 0.001)
- Dunn's Multiple Comparison Test on tumor volume ([3]; DAY 46, vs MCLA-128 25): ** (** = P < 0.01)
- Dunn's Multiple Comparison Test on tumor volume ([3]; DAY 46, vs Vehicle MCLA-128): * (* = P < 0.05)
- Mann-Whitney test on tumor volume ([3]; DAY 46, vs vehicle group): *** (*** = P < 0.001)
- Dunn's Multiple Comparison Test on tumor volume ([3]; DAY 49, vs MCLA-128 25): ** (** = P < 0.01)
- Dunn's Multiple Comparison Test on tumor volume ([3]; DAY 49, vs Vehicle MCLA-128): * (* = P < 0.05)
- Mann-Whitney test on tumor volume ([3]; DAY 49, vs vehicle group): *** (*** = P < 0.001)
- Dunn's Multiple Comparison Test on tumor volume ([3]; DAY 53, vs MCLA-128 25): ** (** = P < 0.01)
- Dunn's Multiple Comparison Test on tumor volume ([3]; DAY 53, vs Vehicle MCLA-128): * (* = P < 0.05)
- Mann-Whitney test on tumor volume ([3]; DAY 53, vs vehicle group): *** (*** = P < 0.001)
- Dunn's Multiple Comparison Test on tumor volume ([3]; DAY 56, vs MCLA-128 25): ** (** = P < 0.01)
- Dunn's Multiple Comparison Test on tumor volume ([3]; DAY 56, vs Vehicle MCLA-128): * (* = P < 0.05)
- Mann-Whitney test on tumor volume ([3]; DAY 56, vs vehicle group): *** (*** = P < 0.001)
- Best T/C % [3, 5]: 18.68%
- Best TGE % [3, 5]: 145.70%
- T/C % (at control group day end) [3, 5]: 18.68%
- TGI % (at control group day end) [3, 5]: 121.97%
- median TGD × 3 (In days) [3, 5]: >56 days
- tumor growth inhibition (in words) ([3]; MCLA-128 25 mg/kg i.p., Letrozole […] p.o. qdx57): statistically significant tumor growth inhibition
- Mann-Whitney test on tumor volume: STAT ([3]; STAT column, vs vehicle group): *** (*** = P < 0.001)
- TFS (Tumor Free Survivor) ([3]; number of complete regressions recorded up to Group Day End): 1
- CR (complete regression) ([3]; number of mice with 0 to 14 mm^3 tumor size during at least 3 consecutive measurements): 1/10 and 1
- TS (Tumor Stabilization) ([3]; number of mice with constant tumor size during at least 6 consecutive measurements): 1
- PR (partial regression) ([3]; number of mice with tumor size lower than initial during at least 6 consecutive measurements): 7/10 and 7
- p compared to the group control by Dunn's test ([3]; tumor growth inhibition): < 0.05
- p compared with the vehicle group, Mann Whitney test ([3]; tumor growth inhibition): < 0.001
